Measurements published in patent US8741806B2, “Herbicides” (Syngenta Limited, priority 2009, dated 2014).

What was measured:
Format in all cases: in vivo
[1] = tested on: Alopecurus myosuroides (ALOMY); assay: Example B pre-emergence herbicidal activity, glasshouse pot test; conditions: 312 h, rate 250 g/ha, evaluated after 13 days, scale 0-100, read-out: Pre-emergence activity ALOMY (100=total damage to plant; 0=no damage to plant)
Method: (§1) Seeds of a variety of test species were sown in standard soil in pots. After cultivation for one day (pre-emergence) or after 8 days cultivation (post-emergence) under controlled conditions in a glasshouse (at 24/16° C., day/night; 14 hours light; 65% humidity), the plants were sprayed with an aqueous spray solution derived from the formulation of the technical active ingredient of formula I in acetone/water (50:50) solution containing 0.5% Tween 20 (polyoxyethelyene sorbitan monolaurate, CAS RN 9005-64-5). The test plants were then grown in a glasshouse under controlled conditions in a glasshouse (at 24/16° C., day/night; 14 hours light; 65% humidity) and watered twice daily. After 13 days for pre and post-emergence, the test was evaluated (100=total damage to plant; 0=no damage to plant). Setaria faberi (SETFA), Lolium perenne (LOLPE), Alopecurus myosuroides (ALOMY), Echinochloa crus-galli (ECHCG), and Avena fatua (AVEFA). Pre-Emergence Activity

Avena fatua (AVEFA) [2] = assay: as above; conditions: 312 h, rate 250 g/ha, evaluated after 13 days, scale 0-100, read-out: Pre-emergence activity AVEFA (100=total damage to plant; 0=no damage to plant)
Method: as §1

[3] = tested on: Echinochloa crus-galli (ECHCG); assay: as above; conditions: 312 h, rate 250 g/ha, evaluated after 13 days, scale 0-100, read-out: Pre-emergence activity ECHCG (100=total damage to plant; 0=no damage to plant)
Method: as §1

Lolium perenne (LOLPE) [4] = assay: as above; conditions: 312 h, rate 250 g/ha, evaluated after 13 days, scale 0-100, read-out: Pre-emergence activity LOLPE (100=total damage to plant; 0=no damage to plant)
Method: as §1

[5] = tested on: Alopecurus myosuroides (ALOMY); assay: Example B post-emergence herbicidal activity, glasshouse pot test; conditions: 312 h, rate 250 g/ha, evaluated after 13 days, scale 0-100, read-out: Post-emergence activity ALOMY (100=total damage to plant; 0=no damage to plant)
Method: as §1, with “Post-Emergence” for “Pre-Emergence”

Avena fatua (AVEFA) [6] = assay: as above; conditions: 312 h, rate 250 g/ha, evaluated after 13 days, scale 0-100, read-out: Post-emergence activity AVEFA (100=total damage to plant; 0=no damage to plant)
Method: as §1, with “Post-Emergence” for “Pre-Emergence”

[7] = tested on: Echinochloa crus-galli (ECHCG); assay: as above; conditions: 312 h, rate 250 g/ha, evaluated after 13 days, scale 0-100, read-out: Post-emergence activity ECHCG (100=total damage to plant; 0=no damage to plant)
Method: as §1, with “Post-Emergence” for “Pre-Emergence”

Lolium perenne (LOLPE) [8] = assay: as above; conditions: 312 h, rate 250 g/ha, evaluated after 13 days, scale 0-100, read-out: Post-emergence activity LOLPE (100=total damage to plant; 0=no damage to plant)
Method: as §1, with “Post-Emergence” for “Pre-Emergence”

SMILES	pest or weed control at 250 g/ha [1] [%]	pest or weed control at 250 g/ha (Avena fatua (AVEFA) [2]) [%]	pest or weed control at 250 g/ha [3] [%]	pest or weed control at 250 g/ha (Lolium perenne (LOLPE) [4]) [%]	pest or weed control at 250 g/ha [5] [%]	pest or weed control at 250 g/ha (Avena fatua (AVEFA) [6]) [%]	pest or weed control at 250 g/ha [7] [%]	pest or weed control at 250 g/ha (Lolium perenne (LOLPE) [8]) [%]
CCc1ccc(-c2ccc(Cl)c(F)c2)cc1C1=C(O)CCCC1=O [Compound T56]	30	20	100	90	60	100	100	100
CCc1ccc(-c2ccc(Cl)c(F)c2F)cc1C1=C(O)C(C)(C)CC(C)(C)C1=O [Compound T62]	60	50	90	90	60	80	80	80
CCc1ccc(-c2ccc(Cl)cc2C)cc1C1=C(O)CCCC1=O [Compound T48]	0	20	90	80	20	10	100	50
CCc1ccc(-c2ccc(Cl)c(C(F)(F)F)c2F)cc1C1=C(O)CCCC1=O [Compound T53]	20	0	40	40	40	80	100	100
CCc1ccc(-c2ccc(Cl)c(F)c2Cl)cc1C1=C(O)CC(C)(C)CC1=O [Compound T29]	40	0	90	70	40	30	100	100
CCc1ccc(-c2c(F)cc(Cl)cc2Cl)cc1C1=C(O)CCCC1=O [Compound T51]	20	40	80	100	40	50	90	90
CCc1ccc(-c2ccc(Cl)cc2F)cc1C1=C(O)CC(C)(C)CC1=O [Compound T32]	0	30	80	80	40	70	100	100
CCc1ccc(-c2ccc(Cl)cc2C)cc1C1=C(O)CC(C)(C)CC1=O [Compound T21]	0	30	40	50	0	0	80	70
CCc1ccc(-c2ccc(Cl)c(F)c2)cc1C1=C(O)C(C)(C)CCC1=O [Compound T10]	0	20	100	90	70	90	100	90
CCc1ccc(-c2ccc(Cl)c(F)c2Cl)cc1C1=C(O)C(C)(C)CCC1=O [Compound T15]	0	0	100	90	0	40	100	50
CCc1ccc(-c2ccc(Cl)cc2Cl)cc1C1=C(O)C(C)(C)CCC1=O [Compound T18]	30	20	90	80	30	40	90	80
CCc1ccc(-c2ccc(Cl)nc2)cc1C1=C(O)CC(C)(C)CC1=O [Compound T27]	0	0	0	0	90	70	100	80
CCc1ccc(-c2ccc(Cl)cc2C)cc1C1=C(O)C(C)(C)CCC1=O [Compound T4, 2-(4′-chloro-4-ethyl-2′-methylbiphen-3-yl)-4,4-dimethylcyclohexane-1,3-dione]	20	0	90	40	0	0	100	50
CCc1ccc(-c2ccc(Cl)c(F)c2F)cc1C1=C(O)CCCC1=O [Compound T52]	40	30	100	90	70	80	100	100
CCc1ccc(-c2cc(Cl)c(Cl)cc2Cl)cc1C1=C(O)CCCC1=O [Compound T46]	0	20	90	70	0	20	100	70
CCc1ccc(-c2ccc(C(F)(F)F)cc2)cc1C1=C(O)CC(C)(C)CC1=O [Compound T34]	20	0	50	30	100	100	100	100
CCc1ccc(-c2ccc(Cl)c(C(F)(F)F)c2)cc1C1=C(O)C(C)(C)CC(C)(C)C1=O [Compound T65]	10	20	90	50	20	30	80	50
CCc1ccc(-c2ccc(Cl)c(C(F)(F)F)c2)cc1C1=C(O)C(C)(C)CCC1=O [Compound T8]	0	20	100	90	40	30	100	80
CCc1ccc(-c2c(F)cc(Cl)cc2F)cc1C1=C(O)CC(C)(C)CC1=O [Compound T28]	20	40	100	90	30	50	100	100
